Experimental findings from patent US20120277281A1, “POLYNUCLEOTIDES FOR MEDICAL USE” (MAX-DELBRÜCK-CENTRUM FÜR MOLEKULARE MEDIZIN, priority 2009, published 2012) are described below.

For the test, the system named is canonical and non-canonical CSF1R transcripts. The test is described as follows: RT-PCR of canonical and non-canonical CSF1R transcripts in Reh and Namalwa cells. The settings on record: single agent. The test is classed as cell-based, human. As to the method:
FIG. 7. Analysis of CSF1R LTR DNA methylation and CBFA2T3 expression. Expression of the transcriptional corepressor CBFA2T3 is lost in HRS cells. (A) Activation of the non-canonical CSF1R transcripts following treatment with TSA and/or 5-aza-dC. The non-HRS cell lines Reh and Namalwa were left untreated or treated with 5-aza-dC, TSA, or 5-aza-dC in combination with TSA. The expression of canonical and non-canonical CSF1R transcripts was analyzed by RT-PCR. The analysis of KM-H2 cells and of GAPDH expression were used as controls. (7A) Analysis of canonical and noncanonical CSF1R transcripts following treatment of Reh and Namalwa cells with TSA and/or 5-aza-dC. […] The expression of both canonical (+720 to +1,325) and noncanonical (−5,090 to +148 and −6152 to −143) CSF1R transcripts was analyzed by RT-PCR. […] GAPDH expression was analyzed as a control. […] (B) Various cell lines and primary CD19^+ human tonsilar B cells were analyzed for expression of CBFA2T3 mRNA by RT-PCR (upper panel) and protein by Western blotting (WB; lower panel) expression. […] Expression of GAPDH and β-actin were analyzed as controls. […] GAPDH and beta-actin expression were analyzed as controls. n.s., non-specific. […] Schematic overview of the regions analyzed for DNA methylation (upper panel) and results of bisulfite pyrosequencing in lymphoma/leukemia cell lines and controls (lower panel). […]

Regarding `Nc1ncn([C@H]2C[C@H](O)[C@@H](CO)O2)c(=O)n1` [Compound 5-aza-dC, 5-aza-2′-deoxycytidine], the “induction of canonical and non-canonical CSF1R transcripts” value was “weakly induced”.
Regarding `CC(/C=C/C(=O)NO)=C\[C@@H](C)C(=O)c1ccc(N(C)C)cc1` [TSA, Trichostatin A], the “induction of canonical and non-canonical CSF1R transcripts” value is recorded as “weakly induced”.
